In the METLIN SMRT retention time set (Domingo-Almenara et al. 2019):

Assay: gradient 5% acetonitrile 3 min, to 50% in 2 min, to 85% in 15 min, held 3 min, 100 µL/min
Details: column: Zorbax Extend-C18 2.1 x 50 mm; eluents: water / acetonitrile, 0.1% formic acid
Method in brief: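 Using water and acetonitrile that each contained 0.1% formic acid, mixtures of ~100 pure standards were separated at 100 μL/min on a Zorbax Extend-C18 column (2.1 × 50 mm, 1.8 μm). The HPLC fed a quadrupole time-of-flight mass spectrometer working in positive and negative ionization mode, with dead and dwell volumes of 40 μL and 900 μL. Data were acquired over 3 months. Retention time was read from computationally picked adduct peaks after manual inspection of each.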

With CCC1CN2C=NC(N3CCN(C(=O)c4nn(C)c5ccccc45)CC3)=CC2=N1 (stereo not given) the RP-LC retention time was 636 s.
COc1ccc(Cn2c(=O)n(C)c3ncncc32)cc1F gave an RP-LC retention time of 683 s.
O=C(Nc1ccccc1)C1CCc2sc(C(=O)N3CCOCC3)cc2C1 (stereo not given) showed an RP-LC retention time of 708 s.
For CCOC(=O)CNC(=O)N1CC(n2cc(COc3ccc(F)cc3)nn2)C1, the RP-LC retention time was 692 s.
O=C(NCc1ccc2c(c1)OCO2)C1CCN(c2ccc(SCc3ccccc3)nn2)CC1 gave an RP-LC retention time of 742 s.
Molecule O=C(Cc1cccc(F)c1)N1CCCC1c1nc(-c2ccccc2Cl)no1 (stereo not given) has an RP-LC retention time of 1200 s.
For Cc1nn(CC(=O)NCCCN2CC(C)CC(C)C2)c(=O)c2c1sc1ccccc12 (stereo not given), the RP-LC retention time was 691 s.
For Cc1cc(C)c(C(=O)N2CCCC(C(=O)NC3CCCCC3)C2)[nH]1 (stereo not given), the RP-LC retention time was 809 s.
In the case of CC(C)(CO)c1cc2cc(NC(=O)C3(c4ccc5c(c4)OC(F)(F)O5)CC3)c(F)cc2n1C[C@@H](O)CO, the RP-LC retention time is reported as 1000 s.
With COc1ccc(NC(=O)Cn2c(C)cc(-c3nnc(C4CCC4)o3)c2C)cc1F the RP-LC retention time was 697 s.
For Cn1c(CNC(=O)C2CCc3nc(N4CCCC4)ncc3C2)nc2ccccc21 (stereo not given), the RP-LC retention time was 529 s.
O=C(Cc1ccccc1Br)N1CCc2cc(-c3ccno3)ccc21 showed an RP-LC retention time of 1030 s.
CN(Cc1nc(-c2ccc(N3CCCC3)nc2)no1)C1CCCCC1 showed an RP-LC retention time of 569 s.
Molecule Cc1ccc(NC(=O)N2CCC3(CC2)NC(=O)c2ccccc2O3)cc1 has an RP-LC retention time of 762 s.
In the case of CCCNc1cc(N2CCC(CCC(=O)NC3CCN(C(=O)OCC)CC3)CC2)ncn1, the RP-LC retention time is reported as 627 s.
CCC(=O)N1CCN(c2nc(CC(C)C)c3c(c2C#N)CC(C)(C)OC3)CC1 gave an RP-LC retention time of 1110 s.
For Cc1ccc(Cl)cc1N1CCN(C(=O)c2[nH]c(C)c(S(=O)(=O)N3CCC(C)CC3)c2C)CC1, the RP-LC retention time was 1190 s.
COc1ccc(Br)cc1Cn1nnc(C(=O)NCc2cccs2)c1N gave an RP-LC retention time of 825 s.
Work on Cc1cc(NC(=O)c2ccc3c(c2)nnn3Cc2ccccc2)no1 yielded an RP-LC retention time of 819 s.
With Clc1ccc(Cl)c(-c2ccc(CNCC3CCNCC3)o2)c1 the RP-LC retention time was 574 s.
Molecule Cc1cc(C2CCCN2C(=O)Nc2ccc(C)c(Cl)c2)no1 (stereo not given) has an RP-LC retention time of 906 s.
O=C(C1CCN(c2ccc3nncn3n2)CC1)N1CCN(c2ccccn2)CC1 gave an RP-LC retention time of 560 s.
With Cc1cc(=O)n(CC(=O)N2CCOCC2)c(N2CCOCC2)n1 the RP-LC retention time was 534 s.
Molecule CCC(C)NC(=O)Cn1c(=O)cc(-c2nc(C(C)C)no2)c2ccccc21 (stereo not given) has an RP-LC retention time of 707 s.
With CCOc1ccc(S(=O)(=O)N2CCC3(CC2)c2nccn2CCN3C)cc1 the RP-LC retention time was 651 s.
With O=C(N[C@@H]1CN(Cc2ccc3c(c2)CCO3)C[C@H]1CO)C1CC1 the RP-LC retention time was 632 s.
Work on Cc1ccc2c(c1)C(=O)C1(O)CCN(c3ccccc3)C1=N2 (stereo not given) yielded an RP-LC retention time of 646 s.
Molecule CCCCN1C(=O)C(C)(C(=O)NCCOC)Oc2cccnc21 (stereo not given) has an RP-LC retention time of 781 s.
In the case of Cc1ccc(-c2nnc(-c3cccc(S(=O)(=O)NC(C)(C)CO)c3)o2)cc1, the RP-LC retention time is reported as 955 s.
In the case of Cn1cc(CCN2CCN(S(=O)(=O)c3cccs3)CC2)c2cccnc21, the RP-LC retention time is reported as 604 s.
For CC(C)Sc1cc2c(cc1NC(=O)Cc1cccc(F)c1)n(C)c(=O)n2C, the RP-LC retention time was 987 s.
Molecule NC(=O)Cn1c(CNC(=O)c2ccccc2)nc2ccccc21 has an RP-LC retention time of 573 s.
Work on Cc1cc(N2CCCC2)n2nc(CN3CCN(c4ccc(Cl)cc4)CC3)nc2n1 yielded an RP-LC retention time of 654 s.
In the case of CS(=O)(=O)N1CCC(OC2CCN(C(=O)Nc3ccc(Cl)cc3F)CC2)CC1, the RP-LC retention time is reported as 783 s.
Work on O=C(CCc1nnn2c1CN(C(=O)c1nccc3ccccc13)CC2)N1CCCC1 yielded an RP-LC retention time of 625 s.
With Cc1cccc(-c2cc3n(n2)CCCN(C(=O)C2CCOC2)C3)c1 (stereo not given) the RP-LC retention time was 735 s.
CCc1nc(-c2csc(S(=O)(=O)N3CCCC(C(=O)Nc4cccc(C)c4C)C3)c2)no1 (stereo not given) gave an RP-LC retention time of 1060 s.
For CCc1nc(N)n(CC(=O)Nc2ccc(F)cc2)c(=O)c1C, the RP-LC retention time was 634 s.
Molecule Cc1ccsc1C(=O)Nc1cnn(-c2ncncc2N2CCC(C)CC2)c1 has an RP-LC retention time of 918 s.
In the case of CCc1noc(NC(C)=O)c1-c1ccc(OC)c(S(=O)(=O)Nc2cccc(C#N)c2)c1, the RP-LC retention time is reported as 738 s.
Work on COCC(=O)N1CCC(Oc2nccnc2N2CCc3ccccc32)C1 (stereo not given) yielded an RP-LC retention time of 779 s.
In the case of COc1ccc(-c2cc(OC)c3cc(NC(=O)c4cccs4)ccc3n2)cc1, the RP-LC retention time is reported as 726 s.
With CCC1=CC2CN3CCc4c([nH]c5ccccc45)[C@@](C(=O)OC)(C2)C13 the RP-LC retention time was 681 s.
With CN(CCc1noc(-c2ccc(C(=O)N3CCOCC3)cc2)n1)C(=O)COc1ccc(Cl)cc1 the RP-LC retention time was 766 s.
Molecule O=C(NCc1cccc(Cl)c1)C1CCCN(c2nc3ncccc3n3cccc23)C1 (stereo not given) has an RP-LC retention time of 664 s.
For CCCOc1ccc(-c2noc(Cc3nc(-c4ccccc4)cs3)n2)cc1, the RP-LC retention time was 1340 s.
Work on Cn1nc(C(=O)N2CCCC2)c2c1CCN(C(=O)CCC(=O)N1CCN(c3ccccn3)CC1)C2 yielded an RP-LC retention time of 579 s.
COc1ccc(CN2C(=O)[C@H](OC)[C@@H]2C2=CCNCC2)cc1 showed an RP-LC retention time of 576 s.
For O=C(Nc1nnc(Cc2cccs2)o1)c1cc(Cl)sc1Cl, the RP-LC retention time was 831 s.
Molecule COc1ccc(CCNc2nc3ccncc3n(C(C)C)c2=O)cc1OC has an RP-LC retention time of 631 s.
For CCc1ccc(-n2ncc3c(=O)n(Cc4nc(-c5ccc(OC)cc5)no4)cnc32)cc1, the RP-LC retention time was 1120 s.
Molecule CC1Cc2ccccc2N1Cc1nnc(-c2ccccc2)o1 (stereo not given) has an RP-LC retention time of 972 s.
For CCCCC(=O)N1CCN(c2nc3ccccc3n(CC(C)C)c2=O)CC1, the RP-LC retention time was 1110 s.
Molecule Cc1ccc(C)c(NC(=O)Cn2nc(N(C)C)c3ccccc3c2=O)c1 has an RP-LC retention time of 862 s.
For CCOC(=O)Cc1ccc(NC(=O)NCc2c(C)nn(CC)c2C)cc1, the RP-LC retention time was 649 s.
Molecule CCN1CCC2(CC1)N=C(c1ccc(Cl)cc1)CC(c1cccc(OC)c1O)N2 (stereo not given) has an RP-LC retention time of 621 s.
Cc1nc(Nc2ccc(Br)cn2)sc1C(=O)N1CCN(C(C)C)CC1 showed an RP-LC retention time of 630 s.
Fc1ccc(-c2nc(-c3ccc4c(c3)ncn4CCN3CCOCC3)no2)cc1 showed an RP-LC retention time of 632 s.
For CCn1c(=O)sc2cc(S(=O)(=O)N3CCC(C(=O)NCc4cccs4)CC3)ccc21, the RP-LC retention time was 832 s.
With CCOCCCNC(=O)c1csc(-c2ccnc(N3CCCC3)c2)n1 the RP-LC retention time was 592 s.
Work on O=C1CCCc2cc(S(=O)(=O)N3CCN(c4ccccn4)CC3)ccc2N1 yielded an RP-LC retention time of 589 s.
With CCC(=O)NCc1csc(C2CCN(C(=O)C3CCC3)CC2)n1 the RP-LC retention time was 614 s.
Molecule COC(CNC(=O)c1cc(C)nn1-c1ccccc1)OC has an RP-LC retention time of 659 s.
Cc1ccccc1NC(=O)N1CC(F)(F)C[C@H]1CN1CCCC1 showed an RP-LC retention time of 622 s.
Cc1ccnc(OCC(=O)NCCNc2cc(-n3nc(C)cc3C)nc(C)n2)n1 gave an RP-LC retention time of 596 s.
In the case of O=C(Nc1cccc(-c2cn3cccnc3n2)c1)c1cccc(Br)c1, the RP-LC retention time is reported as 728 s.
COCCn1c(C2CCN(C(=O)c3cc(Cl)ccc3OC)C2)nc2ccncc21 (stereo not given) gave an RP-LC retention time of 561 s.
In the case of COc1nn(C)cc1C(=O)Nc1cc(C(F)(F)F)ccc1Cl, the RP-LC retention time is reported as 980 s.
In the case of Cc1cc(C)n(CCC(=O)N2CC(Oc3ccc(-c4nc(-c5ccccc5)no4)cc3)C2)n1, the RP-LC retention time is reported as 1020 s.
Cc1cccc(NC(=O)CN2C(=O)CCS(=O)(=O)c3ccccc32)c1 showed an RP-LC retention time of 762 s.
In the case of COCCNC(=O)C1CCN(C(=O)c2cc3ccsc3n2Cc2cccc(OC)c2)CC1, the RP-LC retention time is reported as 770 s.
Molecule COc1ccc(N(C)C(=O)c2nc(C)n(C3CCN(S(C)(=O)=O)CC3)c2C)cc1 has an RP-LC retention time of 600 s.
CC(=O)c1ccc(OC(=O)c2ccc3c(c2)C(=O)N(c2ccccc2)C3=O)cc1 gave an RP-LC retention time of 751 s.
For O=C(c1ccc2c(c1)OCO2)N1CCN(c2cc(-c3ccc(Cl)cc3)[nH]n2)CC1, the RP-LC retention time was 836 s.
Cc1ccccc1-c1nnc(CSc2nnc(NC(=O)CC3CCCCC3)s2)o1 showed an RP-LC retention time of 1080 s.
With CN1C(=O)c2cccn2CC1C(=O)NCC1CC1 (stereo not given) the RP-LC retention time was 608 s.
Cc1ccc(NC(=O)c2cnc3c(c2)c(=O)n(C)c(=O)n3-c2ccccc2)c(F)c1 gave an RP-LC retention time of 887 s.
Molecule CCCCc1ccc(NC(=O)C2CCN(C(=O)C(C)(C)C)CC2)cc1 has an RP-LC retention time of 1020 s.
O=C(CCCn1c(=O)c2cccn2c2ccc(F)cc21)Nc1ccc2c(c1)OCCO2 gave an RP-LC retention time of 642 s.
With O=C(c1cccs1)N1CCc2ccc(NS(=O)(=O)C3CCCCC3)cc21 the RP-LC retention time was 892 s.
Cc1ccc(NC(=O)Nc2nccn(-c3cccc(Cl)c3)c2=O)cc1F gave an RP-LC retention time of 1000 s.
CCCCN1C(=O)C(C)(C(=O)Nc2ccccc2)Oc2cccnc21 (stereo not given) gave an RP-LC retention time of 999 s.
In the case of O=C(NCCc1csc(-c2ccccc2)n1)C1CCN(S(=O)(=O)c2ccc(F)cc2)CC1, the RP-LC retention time is reported as 928 s.
Cc1ccc(N2C(=O)C3N=NN(c4ccc(F)cc4)C3C2=O)cc1C (stereo not given) showed an RP-LC retention time of 1050 s.
CCN(CC)CCNC(=O)c1c(C)oc2c1C(=O)c1ccccc1C2=O showed an RP-LC retention time of 635 s.
In the case of COc1ccc(-n2nc3c(N4CCCC(C(=O)NC5CCCCC5)C4)nnc(C)c3c2C)cc1 (stereo not given), the RP-LC retention time is reported as 732 s.
In the case of CCCN1CCN(C(=O)C(C)C2CCN(S(=O)(=O)c3ccc(Br)s3)CC2)CC1 (stereo not given), the RP-LC retention time is reported as 689 s.
With CC(NC(=O)c1c(O)c2sccc2[nH]c1=O)c1ccncc1 (stereo not given) the RP-LC retention time was 564 s.
With Cc1nc2nc(SCC(=O)NCCCN3CCOCC3)nn2c(C)c1Cc1ccccc1 the RP-LC retention time was 622 s.
Molecule Cc1nc(-c2cccs2)c(CCC(=O)NC2CCCC2)s1 has an RP-LC retention time of 773 s.
